From patent US6946465B2, “Immunosuppressive effects of pteridine derivatives” (4 AZA Bioscience NV, priority 1999, dated 2005) come the findings set out here.

Holding throughout (type): cell-based, human
Assay [1] relates to highly purified T cells stimulated by anti-CD28 mAb. As to the kind of experiment: CD28 assay: T-cell proliferation stimulated by anti-CD28 mAb + PMA (BrdU). The following applies: Table 1; anti-CD28 mAb + PMA 0.5 ng/ml, 48 h. The text has this:
(§1) Various models may be used for testing an immunosuppressive effect. In vivo, for example, different transplantation models are available. They are strongly influenced by different immunogenicities, depending on the donor and recipient species used and depending on the nature of the transplanted organ. The survival time of transplanted organs can thus be used to measure the suppression of the immune response. In vitro, the most used models are lymphocyte activation tests. Usually activation is measured via lymphocyte proliferation. Inhibition of proliferation thus always means immunosuppression under the experimental conditions applied. There exist different stimuli for lymphocyte activation: • a) co-culture of lymphocytes of […] (mixed lymphocyte reaction, hereinafter referred as MLR) in a so-called mixed lymphocyte culture test: lymphocytes expressing different minor and major antigens of the HLA-DR type (=alloantigens) activate each other non-specifically. • b) a CD3 assay here there is an activation of the T-lymphocytes via an exogenously added antibody (OKT3).
(§2) All reagents were dissolved in 0.5 ml dimethylsulfoxide (hereinafter referred as DMSO) and further diluted in culture medium before use for the following in vitro experiments. The commercially available culture medium consisted of RPMI-1640+10% foetal calf serum (FCS).
(§3) T cells were purified by removing non-T cells. Briefly, monocytes were removed by cold agglutination. The resulting lymphoid cells were further purified by a cell enrichment immunocolumn [Cellect Human T commercially available from Biotex, Edmonton, Alberta, Canada)] by a process of negative selection.
(§4) Highly purified T cells (10^6/ml) were stimulated by immobilized anti-CD3 or anti-CD28 monoclonal antibodies (hereinafter referred as mAb) in the presence of PMA. Anti-CD3 mAb (available from CLB, Amsterdam, Netherlands) were fixed on the 96-microwell plates by incubating the wells with 50 μl of mAb solution (1/800 dilution in culture medium). For anti-CD28 mAb (available from CLB, Amsterdam, Netherlands) 50 μl (1/650 dilution in culture medium) was added directly to the wells. Further, a 20 μl phorbol myristate acetate (hereinafter referred as PMA (commercially available from Sigma, St. Louis, Mo., USA) solution (final concentration: 0.5 ng/ml) was added. Subsequently, 20 μl of a compound described in some of the previous examples were added by serial dilution in triplicate wells. Finally 100 μl of the T-cell suspension (10^6/ml) was added. After 48-hour incubation at 37° C. in 5% CO2 20 μl of a bromo-deuridine (hereinafter referred as BrdU) 100 μM solution (commercially available as Cell Proliferation Elisa from Boehringer-Mannheim Belgium) was added to each well. After a further overnight incubation, T-cell proliferation was measured using a colorimetric immunoassay for qualification of cell proliferation based on the incorporation of BrdU during DNA synthesis. Optical density (hereinafter referred as OD) was measured by a Behring EL311 plate reader at 450 nm (reference wavelength: 690 nm). Inhibition of proliferation by a compound (drug) described in some of the previous examples was counted using the formula: [formula]

For assay [2], the system named is peripheral blood mononuclear cells (PBMC) with allogeneic PBMC or RPMI1788 stimulator cells. As to the kind of experiment: Mixed lymphocyte reaction (MLR) test, [3H]-thymidine incorporation. The following applies: Table 1; 5 days incubation + 16 h thymidine.
Excerpt: as §1, §2
Peripheral blood mononuclear cells (hereinafter referred as PBMC) were isolated from heparinized peripheral blood by density gradient centrifugation over Lymphoprep (Nycomed, Maorstua, Norway). Allogeneic PBMC or Eppstein-Barr Virus-transformed human B cells [commercially available under the trade name RPM11788 (ATCC name CCL156)] which strongly express B7-1 and B7-2 antigens were used as stimulator cells after irradiation with 30 Gy. MLR was performed in triplicate wells. After 5 days incubation at 37° C., 1 μCi [^3 H]-thymidine was added to each cup. After a further 16 hours incubation, cells were harvested and counted in a β-counter. Inhibition of proliferation by a compound (drug) described in some of the previous examples was counted using the formula: [formula] wherein cpm is the thymidine count per minute. Assays for CD3 and CD 28

For assay [3], the system named is highly purified T cells stimulated by immobilized anti-CD3 mAb. Nature of the assay: CD3 assay: T-cell proliferation stimulated by anti-CD3 mAb + PMA (BrdU). The following applies: Table 1; anti-CD3 mAb + PMA 0.5 ng/ml, 48 h; read-out: CD 3 IC50.
Excerpt: as §1, §2, §3, §4

Turning to `CC(C)Nc1nc2c(nc1C=O)c(=O)n(C)c(=O)n2C` [Example 66, 6-formyl-7-isopropylamino-1,3-dimethyl-lumazine], the half-inhibitory concentration (IC50) in assay [1] came out at 92 µM; in assay [2], 92 µM; in assay [3], 68 µM.
Consider `Cc1nc2c(nc1N1CCCC1)c(=O)n(C)c(=O)n2C` [Example 74, 6-pyrrolidinyl-1,3,7-trimethyl-lumazine], for which the IC50 in assay [1] is 128 µM; in assay [2] it was 140 µM; in assay [3] it was 92 µM.
For `CC(C)CNc1nc2c(nc1C#N)c(=O)n(C)c(=O)n2C` [Example 52, 6-cyano-7-isobutylamino-1,3-dimethyl-lumazine], the values for the IC50 in assay [1], in assay [2] and in assay [3] were 80 µM, 116 µM and 116 µM, respectively.
On to `Cn1c(=O)c2nc(C#N)c(NCc3ccccc3)nc2n(C)c1=O` [Example 53, 6-cyano-7-benzylamino-1,3-dimethyl-lumazine], for which the IC50 in assay [1] worked out at 104 µM; in assay [2], 140 µM; in assay [3] it was 140 µM.
Take `COc1nc2c(nc1C=Cc1ccccc1)c(=O)n(C)c(=O)n2C` [Example 40, 7-methoxy-1,3-dimethyl-6-styryllumazine]: the values for the IC50 in assay [1], in assay [2] and in assay [3] were > 200 µM, 20 µM and > 200 µM, respectively.
Turning to `CCOC(=O)CSc1nc2c(nc1C(Cl)Cl)c(=O)n(C)c(=O)n2C` [Example 72, 6-dichloromethyl-7-ethylmercaptoacetate-1,3-dimethyl-lumazine], the IC50 was 19 µM in assay [1], 116 µM in assay [2] and > 20 µM in assay [3].
In the same order, the values of `CCOc1nc2c(nc1-c1ccccc1)c(=O)n(C)c(=O)n2C` [Example 33, 7-ethoxy-1,3-dimethyl-6-phenyllumazine] are 70 µM, 40 µM and 100 µM.
As for `Cn1c(=O)c2nc(C=O)c(NCCO)nc2n(C)c1=O` [Example 67, 6-formyl-7-hydroxyethylamino-1,3-dimethyl-lumazine], the IC50 in assay [1], in assay [2] and in assay [3] was 104 µM in each case.
Consider `Cc1nc2c(nc1NCc1ccccc1)c(=O)n(C)c(=O)n2C` [Example 73, 6-benzylamino-1,3,7-trimethyl-lumazine], for which the IC50 in assay [1] came to 128 µM; in assay [2] it was 44 µM; in assay [3] it was 92 µM.
Take `Cn1c(=O)c2nc(C=O)c(O)nc2n(C)c1=O` [Example 45, 6-formyl-7-hydroxy-1,3-dimethyl-lumazine]: the IC50 in assay [1] is 9 µM; in assay [2] it was > 200 µM; in assay [3] it was 15.5 µM.
In the case of `Cn1c(=O)c2nc(C=Cc3ccc(OC(F)(F)F)cc3)cnc2n(C)c1=O` [Example 80, 6-[2-(p-trifluoromethoxyphenyl)ethenyl]-1,3-dimethyllumazine], in assay [2], the IC50 turned out to be 9 µM.
Take `Cn1c(=O)c2nc(C#N)c(NC3CCCCC3)nc2n(C)c1=O` [Example 55, 6-cyano-7-cyclohexylamino-1,3-dimethyl-lumazine]: the IC50 is 92 µM in assay [1], 15 µM in assay [2] and 92 µM in assay [3].
Take `Cn1c(=O)c2nc(C=Cc3ccc(C(F)(F)F)cc3)cnc2n(C)c1=O` [Example 77, 6-[2-(p-trifluoromethylphenyl)ethenyl]-1,3-dimethyllumazine]: the IC50 in assay [1] is 140 µM; in assay [2], 17 µM; in assay [3] it was > 200 µM.
Consider `Cn1c(=O)c2nc(C(Cl)Cl)c(Cl)nc2n(C)c1=O` [Example 50, 6-dichloromethyl-7-chloro-1,3-dimethyl-lumazine], for which the IC50 in assay [1] stood at 9.5 µM; in assay [2] it was 4 µM; in assay [3], 9.5 µM.
With `CC(=O)Nc1nc2c(nc1C#N)c(=O)n(C)c(=O)n2C` [Example 54, 6-cyano-7-acetenylamino-1,3-dimethyl-lumazine], the figures for the 50% inhibitory concentration (IC50) in assay [1], in assay [2] and in assay [3] were 80 µM, 140 µM and 104 µM, respectively.
As to `COC(=O)C(Br)C(Br)c1cnc2c(=O)n(C)c(=O)n(C)c2n1` (stereo not drawn) [Example 25, 7-[1,2-dibromo-2-(methoxycarbonyl)ethyl)-1,3-dimethyllumazine], the IC50 in assay [2] worked out at 1.9 µM.
Consider `Cn1c(=O)[nH]c2nc(O)c(-c3ccccc3)nc2c1=O` [Example 42, 7-hydroxy-3-methyl-6-phenyllumazine], for which the IC50 in assay [1] was found to be 25 µM; in assay [2], 55 µM; in assay [3], 20 µM.
Consider `Cn1c(=O)c2nc(Cl)c(N3CCCCC3)nc2n(C)c1=O` [Example 75, 6-chloro-7-piperidyl-1,3-diimethyl-lumazine], for which the IC50 in assay [1] worked out at 80 µM; in assay [2], 160 µM; in assay [3], 80 µM.
On to `COC(=O)C(Br)C(Br)c1cnc2c(n1)c(=O)n(C)c(=O)n2C` (stereo not drawn) [Example 11, 6-(1,2-dibromo-2-(methoxycarbonyl)ethyl)-1,3-dimethyllumazine], for which the IC50 was found to be 0.08 µM in assay [1], 12 µM in assay [2] and 0.55 µM in assay [3].
In the same order, the values of `Cn1c(=O)c2nc(C=O)c(N3CCCCCC3)nc2n(C)c1=O` [Example 68, 6-formyl-7-(1-azacycloheptyl)-1,3-dimethyl-lumazine] are 116 µM, 80 µM and 80 µM.
As to `COC(=O)C=C(OC)c1cnc2c(n1)c(=O)n(C)c(=O)n2C` [Example 16], the IC50 in assay [1] was 80 µM; in assay [2] it was 70 µM; in assay [3] it was 80 µM.
Turning to `Cn1c(=O)c2nc(/C=C/c3cccnc3)cnc2n(C)c1=O` [Example 6, 1,3-dimethyl-6-[(E)-2-(pyrid-3-yl)vinyl]lumazine], the concentration for half-maximal inhibition (IC50) in assay [1] was found to be 110 µM; in assay [2], 30 µM; in assay [3], 110 µM.
For `Cn1c(=O)c2nc(C=O)c(NC3CC3)nc2n(C)c1=O` [Example 70, 6-formyl-7-cyclopropylamino-1,3-dimethyl-lumazine], the IC50 is 116 µM in assay [1], 80 µM in assay [2] and 80 µM in assay [3].
For the compound `Cn1c(=O)c2nc(C(Br)C(Br)c3ccccc3)cnc2n(C)c1=O` (stereo not drawn) [Example 8, 6-(1,2-dibromo-2-phenylethyl)-1,3-dimethyllumazine], the IC50 in assay [1] is 1.55 µM; in assay [2], 15 µM.
`CCOC(=O)c1nc2c(=O)n(C)c(=O)n(C)c2nc1Cl` [Example 48, 6-ethylcarboxylate-7-chloro-1,3-dimethyl-lumazine]: the IC50 in assay [2] was determined as 12.5 µM.
In the case of `CCOC(=O)CSc1nc2c(nc1C#N)c(=O)n(C)c(=O)n2C` [Example 81, 6-cyano-7-ethylmercaptoacetate-1,3-dimethyllumazine], the IC50 in assay [2] amounted to 12.2 µM.
In the case of `Cn1c(=O)c2ncc(Cl)nc2n(C)c1=O` [Example 31, 7-chloro-1,3-dimethyllumazine], the figures for the 50% inhibitory concentration (IC50) in assay [1] and in assay [2] were 0.1 µM and 12 µM, respectively.
In the same order, the values of `Cn1c(=O)c2ncc(C(Br)C(Br)c3ccccc3)nc2n(C)c1=O` (stereo not drawn) [Example 27, 7-(1,2-dibromo-2-phenylethyl)-1,3-dimethyllumazine] are 0.1 µM and 12 µM.
In the case of `COC(=O)C(Br)=Cc1cnc2c(n1)c(=O)n(C)c(=O)n2C` [Example 12, 6-(2-bromo-2-methoxycarbonyl-ethenyl)-1,3-dimethyllumazine], the IC50 in assay [1] amounted to 0.08 µM; in assay [3], 0.58 µM.
